# Experimental data taken from patent US20150258106A1, “METHODS FOR ACUTE AND LONG-TERM TREATMENT OF SUBSTANCE ABUSE” (DEMERX, INC., priority 2014, published 2015).
# Entries after “also recorded” stand apart in the source; their conditions may differ. Like-named read-outs stand apart in the source and are kept apart here.
# Tests used:
# Format in all cases: in vivo, human
# [1] = system: opioid-dependent participants; test: Treatment emergent adverse events in opioid-dependent participants (randomized, placebo-controlled, double-blind trial)
# Description: The efficacy of noribogaine in humans was evaluated in opioid-dependent participants in a randomized, placebo-controlled, double-blind trial. […] See U.S. application Ser. No. 14/214,157, filed Mar. 14, 2014 and Ser. No. 14/346,655, filed Mar. 21, 2014, which are incorporated herein by reference in their entireties.
# (§1) Three cohorts of nine (9) subjects (6 administered noribogaine and 3 administered placebo in each cohort) were evaluated for tolerability, pharmacokinetics, and efficacy. Cohort 1 received a single dose of 60 mg noribogaine or placebo. Cohort 2 received a single dose of 120 mg noribogaine or placebo. Cohort 3 received a single dose of 180 mg noribogaine or placebo. […] Headaches were frequent in the placebo and 60 mg noribogaine treatment groups, but were attenuated in the 120 mg and 180 mg dose groups.
# [2] = Pharmacokinetics in opioid-dependent patients (Phase IB study); settings: for AUC(0-t) / AUC / half-life / Tmax / Vd/F / Cmax: human, serum, opioid-dependent patients
# Description: as §1
# [3] = system: healthy, drug-free male volunteers; test: Safety and tolerability of noribogaine in healthy humans (adverse events, vital signs, ECG)
# Description: Pulse oximetry and capnography data were collected continuously using a GE Carescape B650 monitoring system from 2 hours prior to dosing and until six hours after dosing, and thereafter at 12, 24, 48 and 72 hours post-dosing. […] Pupillary miosis was assessed by pupillometry.
# Safety and tolerability of noribogaine were tested in the group of volunteers from Example 1. […] Safety evaluations included clinical monitoring, recording of adverse events (AEs), safety laboratory tests, vital signs, ECG telemetry from −2 h to 6 h after dosing, and 12-lead electrocardiograms (ECGs) up to 216 hours post-dosing.
# [4] = opioid-dependent patients, 60, 120 or 180 mg single dose
# [5] = opioid-dependent patients, single 60 mg dose, N = 6
# [6] = opioid-dependent patients, single 120 mg dose, N = 6
# [7] = opioid-dependent patients, single 180 mg dose, N = 6
smiles,measurement,setting,value
CCC1CC2CC3c4[nH]c5ccc(O)cc5c4CCN(C2)C13 (centres unmarked) [Noribogaine],Headaches,"[1]; opioid-dependent patients, 60 mg treatment group",frequent
same,Headaches,"[1]; opioid-dependent patients, 120 mg dose group",attenuated
same,Headaches,"[1]; opioid-dependent patients, 180 mg dose group",attenuated
same,adverse effects of noribogaine observed,[1]; [4],Few adverse effects
same,hallucinatory effects,[1]; [4],no hallucinatory effects
same,Treatment Emergent Adverse Events: Catheter Site Infection,[1]; [5],0
same,Treatment Emergent Adverse Events: Catheter Site Pain,[1]; [5],0
same,Treatment Emergent Adverse Events: Catheter Site Related Reaction,[1]; [5],0
same,Treatment Emergent Adverse Events: Cellulitis,[1]; [5],0
same,Treatment Emergent Adverse Events: Diarrhoea,[1]; [5],0
same,Treatment Emergent Adverse Events: Dry Mouth,[1]; [5],0
same,Treatment Emergent Adverse Events: Ear and Labyrinth Disorders,[1]; [5],0
same,Treatment Emergent Adverse Events: Epistaxis,[1]; [5],0
same,Treatment Emergent Adverse Events: Euphoric Mood,[1]; [5],0
same,Treatment Emergent Adverse Events: General Disorders and Administration Site Conditions,[1]; [5],0
same,Treatment Emergent Adverse Events: Hyperaesthesia,[1]; [5],0
same,Treatment Emergent Adverse Events: Infections and Infestations,[1]; [5],0
same,Treatment Emergent Adverse Events: Limb Discomfort,[1]; [5],0
same,Treatment Emergent Adverse Events: Malaise,[1]; [5],0
same,Treatment Emergent Adverse Events: Nausea,[1]; [5],0
same,Treatment Emergent Adverse Events: Oropharyngeal Pain,[1]; [5],0
same,Treatment Emergent Adverse Events: Pseudoparalysis,[1]; [5],0
same,"Treatment Emergent Adverse Events: Respiratory, Thoracic and Mediastinal Disorders",[1]; [5],0
same,Treatment Emergent Adverse Events: Rhinorrhoea,[1]; [5],0
same,Treatment Emergent Adverse Events: Skin Discomfort,[1]; [5],0
same,Treatment Emergent Adverse Events: Skin Irritation,[1]; [5],0
same,Treatment Emergent Adverse Events: Skin and Subcutaneous Tissue Disorders,[1]; [5],0
same,Treatment Emergent Adverse Events: Somnoience,[1]; [5],0
same,Treatment Emergent Adverse Events: Tinnitus,[1]; [5],0
same,Treatment Emergent Adverse Events: Tremor,[1]; [5],0
same,Treatment Emergent Adverse Events: Urinary Tract Infection,[1]; [5],0
same,Treatment Emergent Adverse Events: Vomiting,[1]; [5],0
same,Treatment Emergent Adverse Events: Back Pain,[1]; [6],0
same,Treatment Emergent Adverse Events: Catheter Site Infection,[1]; [6],0
same,Treatment Emergent Adverse Events: Catheter Site Related Reaction,[1]; [6],0
same,Treatment Emergent Adverse Events: Depressed Mood,[1]; [6],0
same,Treatment Emergent Adverse Events: Dry Eye,[1]; [6],0
same,Treatment Emergent Adverse Events: Dyspepsia,[1]; [6],0
same,Treatment Emergent Adverse Events: Euphoric Mood,[1]; [6],0
same,Treatment Emergent Adverse Events: Limb Discomfort,[1]; [6],0
same,Treatment Emergent Adverse Events: Malaise,[1]; [6],0
same,Treatment Emergent Adverse Events: Musculoskeletal and Connective Tissue Disorders,[1]; [6],0
same,Treatment Emergent Adverse Events: Psychiatric Disorders,[1]; [6],0
same,Treatment Emergent Adverse Events: Somnoience,[1]; [6],0
same,Treatment Emergent Adverse Events: Urinary Tract Infection,[1]; [6],0
same,Treatment Emergent Adverse Events: Catheter Site Infection,[1]; [7],0
same,Treatment Emergent Adverse Events: Catheter Site Pain,[1]; [7],0
same,Treatment Emergent Adverse Events: Depressed Mood,[1]; [7],0
same,Treatment Emergent Adverse Events: Diarrhoea,[1]; [7],0
same,Treatment Emergent Adverse Events: Dry Eye,[1]; [7],0
same,Treatment Emergent Adverse Events: Dyspepsia,[1]; [7],0
same,Treatment Emergent Adverse Events: Ear and Labyrinth Disorders,[1]; [7],0
same,Treatment Emergent Adverse Events: Epistaxis,[1]; [7],0
same,Treatment Emergent Adverse Events: Euphoric Mood,[1]; [7],0
same,Treatment Emergent Adverse Events: Hyperaesthesia,[1]; [7],0
same,Treatment Emergent Adverse Events: Malaise,[1]; [7],0
same,Treatment Emergent Adverse Events: Oropharyngeal Pain,[1]; [7],0
same,Treatment Emergent Adverse Events: Pseudoparalysis,[1]; [7],0
same,Treatment Emergent Adverse Events: Psychiatric Disorders,[1]; [7],0
same,"Treatment Emergent Adverse Events: Respiratory, Thoracic and Mediastinal Disorders",[1]; [7],0
same,Treatment Emergent Adverse Events: Rhinorrhoea,[1]; [7],0
same,Treatment Emergent Adverse Events: Skin Discomfort,[1]; [7],0
same,Treatment Emergent Adverse Events: Skin Irritation,[1]; [7],0
same,Treatment Emergent Adverse Events: Skin and Subcutaneous Tissue Disorders,[1]; [7],0
same,Treatment Emergent Adverse Events: Somnoience,[1]; [7],0
same,Treatment Emergent Adverse Events: Tinnitus,[1]; [7],0
same,Treatment Emergent Adverse Events: Tremor,[1]; [7],0
same,AUC(0-t),"[2]; 60 mg, Cohort 1 (60 mg), mean ± SD, read-out: AUC(0-T)",2020 ± 614 ng·h/mL
same,AUC,"[2]; 60 mg, Cohort 1 (60 mg), mean ± SD, read-out: AUC(0-¥)",2060 ± 609 ng·h/mL
same,half-life,"[2]; 60 mg, Cohort 1 (60 mg), mean ± SD, read-out: Half-life (converted)",29.3 ± 7.28 h
same,Tmax,"[2]; 60 mg, Cohort 1 (60 mg), mean ± SD, read-out: Tmax",3.59 ± 0.92 h
same,Vd/F,"[2]; 60 mg, Cohort 1 (60 mg), mean ± SD, read-out: Vd/F",1440 ± 854 L
same,AUC(0-t),"[2]; 60 mg, Cohort 1 (60 mg), range, read-out: AUC(0-T) [range]",1090 to 2530 ng·h/mL
same,AUC,"[2]; 60 mg, Cohort 1 (60 mg), range, read-out: AUC(0-¥) [range]",1120 to 2550 ng·h/mL
same,half-life,"[2]; 60 mg, Cohort 1 (60 mg), range, read-out: Half-life [range]",18.3 to 37.3 h
same,Tmax,"[2]; 60 mg, Cohort 1 (60 mg), range, read-out: Tmax [range]",2.5 to 5 h
same,Vd/F,"[2]; 60 mg, Cohort 1 (60 mg), range, read-out: Vd/F [range]",620 to 2770 L
same,Cmax,"[2]; 60 mg, Cohort 1 (60 mg), mean ± SD, read-out: Cmax",81.6 ± 23.8 ng/mL
same,Cmax,"[2]; 60 mg, Cohort 1 (60 mg), range, read-out: Cmax [range]",41.3 to 113 ng/mL
same,AUC(0-t),"[2]; 120 mg, Cohort 2 (120 mg), mean ± SD, read-out: AUC(0-T)",3230 ± 1540 ng·h/mL
same,AUC,"[2]; 120 mg, Cohort 2 (120 mg), mean ± SD, read-out: AUC(0-¥)",3280 ± 1580 ng·h/mL
same,half-life,"[2]; 120 mg, Cohort 2 (120 mg), mean ± SD, read-out: Half-life (converted)",30.4 ± 9.14 h
same,Tmax,"[2]; 120 mg, Cohort 2 (120 mg), mean ± SD, read-out: Tmax",2.99 ± 1.23 h
same,Vd/F,"[2]; 120 mg, Cohort 2 (120 mg), mean ± SD, read-out: Vd/F",2110 ± 1640 L
same,AUC(0-t),"[2]; 120 mg, Cohort 2 (120 mg), range, read-out: AUC(0-T) [range]",1560 to 5640 ng·h/mL
same,AUC,"[2]; 120 mg, Cohort 2 (120 mg), range, read-out: AUC(0-¥) [range]",1600 to 5770 ng·h/mL
same,half-life,"[2]; 120 mg, Cohort 2 (120 mg), range, read-out: Half-life [range]",21.9 to 48.3 h
same,Tmax,"[2]; 120 mg, Cohort 2 (120 mg), range, read-out: Tmax [range]",0.98 to 4.02 h
same,Vd/F,"[2]; 120 mg, Cohort 2 (120 mg), range, read-out: Vd/F [range]",824 to 5240 L
same,Cmax,"[2]; 120 mg, Cohort 2 (120 mg), mean ± SD, read-out: Cmax",173 ± 30.7 ng/mL
same,Cmax,"[2]; 120 mg, Cohort 2 (120 mg), range, read-out: Cmax [range]",139 to 230 ng/mL
same,AUC(0-t),"[2]; 180 mg, Cohort 3 (180 mg), mean ± SD, read-out: AUC(0-T)",6520 ± 2910 ng·h/mL
same,AUC,"[2]; 180 mg, Cohort 3 (180 mg), mean ± SD, read-out: AUC(0-¥)",6890 ± 3490 ng·h/mL
same,half-life,"[2]; 180 mg, Cohort 3 (180 mg), mean ± SD, read-out: Half-life (converted)",23.9 ± 5.54 h
same,Tmax,"[2]; 180 mg, Cohort 3 (180 mg), mean ± SD, read-out: Tmax",4.41 ± 1.8 h
same,Vd/F,"[2]; 180 mg, Cohort 3 (180 mg), mean ± SD, read-out: Vd/F",1030 ± 365 L
same,AUC(0-t),"[2]; 180 mg, Cohort 3 (180 mg), range, read-out: AUC(0-T) [range]",3720 to 10400 ng·h/mL
same,AUC,"[2]; 180 mg, Cohort 3 (180 mg), range, read-out: AUC(0-¥) [range]",3730 to 12300 ng·h/mL
same,half-life,"[2]; 180 mg, Cohort 3 (180 mg), range, read-out: Half-life [range]",19.3 to 34.9 h
same,Tmax,"[2]; 180 mg, Cohort 3 (180 mg), range, read-out: Tmax [range]",3 to 8 h
same,Vd/F,"[2]; 180 mg, Cohort 3 (180 mg), range, read-out: Vd/F [range]",581 to 1610 L
same,Cmax,"[2]; 180 mg, Cohort 3 (180 mg), mean ± SD, read-out: Cmax",268 ± 46.9 ng/mL
same,Cmax,"[2]; 180 mg, Cohort 3 (180 mg), range, read-out: Cmax [range]",205 to 338 ng/mL
same,Maximum serum concentration of noribogaine (Cmax) versus dose,"[2]; opioid-dependent patients, 60, 120, 180 mg",increased in a dose-dependent manner
same,"adverse events, Mild","[3]; healthy volunteers, 3 mg dose",Back pain; also recorded: Dizziness; also recorded: Epistaxis; also recorded: Headache
same,"adverse events, Moderate","[3]; healthy volunteers, 3 mg dose",Headache
same,number of adverse events reported,"[3]; healthy volunteers, 3 mg dose group",five adverse events were reported by two subjects
same,"adverse events, Mild","[3]; healthy volunteers, 10 mg dose",Headache
same,number of adverse events reported,"[3]; healthy volunteers, 10 mg dose group, single subject",one adverse event
same,"adverse events, Mild","[3]; healthy volunteers, 30 mg dose",Headache
same,number of adverse events reported,"[3]; healthy volunteers, 30 mg dose group, single subject",one adverse event
same,"oximetry, capnography, respiratory rate","[3]; healthy volunteers, 3-60 mg","no changes in oximetry or capnography, or changes in respiratory rate"
same,vital signs and safety laboratory tests,"[3]; healthy volunteers, 3-60 mg",no changes in vital signs or safety laboratory tests of note
same,intensity of adverse events,"[3]; healthy volunteers, all groups, all resolved prior to study completion",mild-moderate intensity
same,QTcF values,"[3]; healthy volunteers, at any time",≤ 500 ms
same,single increase in QTcF,"[3]; one subject dosed with 10 mg, at 24 hours post-dosing",> 60 ms
